Where two headings read alike, the source gives them in different places. Each block holds one molecule with its values, some of them ahead of it.
Assay: Multi-component pharmacokinetic study of GQD, GQD-GC and single herb extracts in rats (plasma, LC/MS/MS)
Assay type: in vivo, Sprague-Dawley rats
Conditions: for AUC(0-t) / Cmax / half-life / Tmax: male, Sprague-Dawley, rat; for AUC(0-t): po, read-out: AUClast; for Cmax: read-out: Cmax; for half-life: read-out: T1/2 (converted); for Tmax: read-out: Tmax
How it was run: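 Male Sprague-Dawley rats (220–250 g, n = 10 per group) dosed orally with GQD, GQD-GC (1.0 g crude drug/mL) or single-herb decoctions. Plasma analytes quantified by LC/MS/MS in positive-ESI SRM mode. Cmax and Tmax taken from measured data, other parameters by non-compartmental or compartmental analysis; mean ± SD.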

[1] = GC (Gan-Cao) group: rats, oral extract 2.36 g/kg, plasma
[2] = plasma, 18.9 g/kg, GQD group: rats, oral GQD extract 18.9 g/kg, plasma
[3] = GQD group: rats, oral GQD extract 18.9 g/kg, plasma
[4] = GQD-GC group (GQD without Gan-Cao): rats, oral 16.5 g/kg, plasma
[5] = HL (Huang-Lian) group: rats, oral extract 3.54 g/kg, plasma

AUClast [1]: 790.47 ± 362.54 ng·h/mL
AUC(0-t) [2]: 871 ± 571 ng·h/mL
AUC(0-t) (plasma, 18.9 g/kg, GQD group: rats, oral GQD 18.9 g/kg (1.5-fold of clinical dosage), plasma): 871 ± 571 ng·h/mL
Cmax [1]: 46.4 ± 0.89 ng/mL
half-life [1]: 4.08 ± 1.07 h
Tmax [1]: 5.89 ± 0.98 h
Cmax [3]: 55.6 ± 14.3 ng/mL
half-life [3]: 4.78 ± 9.98 h
Tmax [3]: 6.9 ± 0.28 h
change of pharmacokinetics by GQD compared with Gan-Cao (rats, oral): hardly changed
SMILES: CC1(C)[C@@H](O[C@H]2O[C@H](C(=O)O)[C@@H](O)[C@H](O)[C@H]2O[C@@H]2O[C@H](C(=O)O)[C@@H](O)[C@H](O)[C@H]2O)CC[C@]2(C)[C@H]3C(=O)C=C4[C@@H]5C[C@@](C)(C(=O)O)CC[C@]5(C)CC[C@@]4(C)[C@]3(C)CC[C@@H]12 [Compound 36, glycyrrhizic acid]

AUC(0-t) (plasma, 3.54 g/kg, HL (Huang-Lian) group: rats, oral extract 3.54 g/kg, plasma): 198 ± 76.9 ng·h/mL
AUC(0-t) (plasma, 3.54 g/kg, Huang-Lian group: rats, oral 3.54 g/kg, plasma): 198 ± 76.9 ng·h/mL
AUC(0-t) (plasma, 16.5 g/kg, GQD-GC group (GQD without Gan-Cao): rats, oral 16.5 g/kg, plasma): 149 ± 70.8 ng·h/mL
AUC(0-t) (plasma, 16.5 g/kg, GQD−GC group: rats, oral 16.5 g/kg, plasma): 149 ± 70.8 ng·h/mL
AUC(0-t) [2]: 389 ± 187 ng·h/mL
Cmax [3]: 28.2 ± 17.4 ng/mL
half-life [3]: 11.4 ± 2.78 h
Tmax [3]: 0.39 ± 0.76 h
Cmax [4]: 32.3 ± 13.2 ng/mL
half-life [4]: 7.09 ± 0.65 h
Tmax [4]: 0.35 ± 0.23 h
Cmax [5]: 76.7 ± 27.9 ng/mL
half-life [5]: 9.3 ± 1.67 h
Tmax [5]: 0.29 ± 1.12 h
increase of AUClast in GQD group compared with the Huang-Lian group (rats, oral, GQD vs Huang-Lian): 96.5%
improvement of plasma concentrations by GQD (vs Huang-Lian) (rats, oral, abstract): at least 30%
SMILES: COc1ccc2cc3[n+](cc2c1OC)CCc1cc2c(cc1-3)OCO2 [Compound 24, berberine]
